Source: the NIST ThermoML archive (doi:10.1007/s10765-007-0182-2)
± gives the expanded uncertainty stated by the source.

Settings: 101.33 kPa, Liquid, hot wire

**Q.** Which thermal conductivity (620.3 K) does the source give for `[Pb]` [lead] here?
**A.** 16.2 ± 1 W/m/K

**Q.** And the thermal conductivity (678.1 K)?
**A.** 17 ± 1.1 W/m/K

**Q.** And the thermal conductivity (729.5 K)?
**A.** 17.6 ± 1.1 W/m/K
